Experimental data: patent US10898504B2, “Substituted nucleoside analogues for use as PRMT5 inhibitors” (Janssen Pharmaceutica NV, priority 2016, dated 2021)
“And” between values parts separate entries of the source, which are not always exact repeats. Equal entries are not always repeated.

Experiments:
A549 cells = assay: PD assay (Assay 2): inhibition of nuclear symmetric Arginine dimethylation (SYM10 immunohistochemistry) in A549 cells; type: cell-based; details: individual measurements shown; for IC50: Homo sapiens, A549, PD assay in A549 cells, read-out: pIC50 Assay 2 (converted); for pIC50 Assay 2: PD assay in A549 cells
Procedure, shortened: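 A549 cells dosed with a nine-point series (0.2% DMSO) for 48 h at 37° C, then fixed and immunostained with SYM10 anti-symmetric-dimethylarginine antibody, plus Hoechst and CellMask counterstains for high-content imaging. Nuclear signal normalized between DMSO and 10 μM reference-compound controls to derive IC50/pIC50.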

PRMT5-MEP50 enzyme = molecular target: T1, PRMT5-MEP50 enzyme (Homo sapiens, UniProt O14744); assay: In vitro assay (Assay 1): PRMT5-MEP50 high throughput mass spectrometer assay, inhibition of SAH formation; type: biochemical; details: individual measurements shown, read-out: pIC50 Assay 1 (converted)
T1 construct: One virus expresses full length human PRMT5 with Flag-tag at N-terminus
Procedure, shortened: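 Flag-PRMT5/His-MEP50 full-length human complex (Sf9-expressed), 10 nM, with 1 μM SAM and 0.3 μM histone H2A in 20 mM Tris-HCl pH 8.5, 50 mM NaCl, 5 mM MgCl2, 1 mM DTT; 60 min at 30 °C, quenched with 1% formic acid. SAH quantified by RapidFire MS; IC50 from 11-point 1:2 series fitted to four-parameter Hill equation.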

T1 sequence (O14744 whole entry): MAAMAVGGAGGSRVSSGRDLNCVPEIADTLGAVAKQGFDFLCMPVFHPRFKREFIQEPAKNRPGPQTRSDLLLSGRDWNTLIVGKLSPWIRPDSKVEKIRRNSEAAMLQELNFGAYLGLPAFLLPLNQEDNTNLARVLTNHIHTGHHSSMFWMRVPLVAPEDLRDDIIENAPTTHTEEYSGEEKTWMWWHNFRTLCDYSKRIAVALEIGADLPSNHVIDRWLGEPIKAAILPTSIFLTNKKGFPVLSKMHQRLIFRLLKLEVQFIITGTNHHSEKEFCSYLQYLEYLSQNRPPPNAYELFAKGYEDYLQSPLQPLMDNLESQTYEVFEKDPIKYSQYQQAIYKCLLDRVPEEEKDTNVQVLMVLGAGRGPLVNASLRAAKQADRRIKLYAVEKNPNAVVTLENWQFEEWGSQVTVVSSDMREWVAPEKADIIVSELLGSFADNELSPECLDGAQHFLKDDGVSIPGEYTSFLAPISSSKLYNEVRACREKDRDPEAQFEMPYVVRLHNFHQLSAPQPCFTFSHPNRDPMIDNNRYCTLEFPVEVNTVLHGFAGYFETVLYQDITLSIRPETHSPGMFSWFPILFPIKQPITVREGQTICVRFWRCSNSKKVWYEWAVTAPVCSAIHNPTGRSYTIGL
T1 sequence (Q9BQA1 whole entry partner): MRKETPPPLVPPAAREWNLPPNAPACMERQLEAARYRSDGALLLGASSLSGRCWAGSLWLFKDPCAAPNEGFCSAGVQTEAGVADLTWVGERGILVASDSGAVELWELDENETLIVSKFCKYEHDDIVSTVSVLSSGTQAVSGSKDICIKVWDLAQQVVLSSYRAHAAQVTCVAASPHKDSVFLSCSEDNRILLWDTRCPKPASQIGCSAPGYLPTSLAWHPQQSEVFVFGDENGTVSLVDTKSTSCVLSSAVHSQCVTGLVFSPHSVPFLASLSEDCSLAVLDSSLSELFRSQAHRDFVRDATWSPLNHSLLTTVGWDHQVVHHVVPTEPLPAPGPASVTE

SMILES	IC50 (A549 cells)	IC50 (PRMT5-MEP50 enzyme)	pIC50 Assay 2 (A549 cells)
Nc1ncnc2c1ccn2[C@@H]1O[C@H](CN2CCC23CCNCC3)[C@@H](O)[C@H]1O [Compound 112]	~1.78 µM	0.0331 µM	
Nc1ncnc2c1ccn2[C@@H]1O[C@H](CN2CCCCC23CCNCC3)[C@@H](O)[C@H]1O [Compound 113]	0.145 µM	0.00813 µM	
Nc1ncnc2c1ccn2[C@@H]1O[C@H](CN2CCCC3(CCNCC3)C2)[C@@H](O)[C@H]1O [Compound 114]	~1.07 µM	0.0339 µM	
CN1CCC2(CC1)CC(F)(F)CN2CC1C[C@@H](n2ccc3c(N)ncnc32)[C@H](O)[C@@H]1O (stereo partly drawn) [Compound 123]	0.162 µM	0.0224 µM	
Nc1ncnc2c1ccn2[C@@H]1C[C@H](CN2CCCC23CCNCC3)[C@@H](O)[C@H]1O [Compound 124]	0.447 µM	0.0275 µM	
CN1CCC2(CCCN2CC2C[C@@H](n3ccc4c(N)ncnc43)[C@H](O)[C@@H]2O)CC1 (stereo partly drawn) [Compound 125]	~0.871 µM	0.148 µM	
Nc1ncnc2c1ccn2[C@@H]1C[C@H](CN2CC(F)(F)CC23CCNCC3)[C@@H](O)[C@H]1O [Compound 126]	0.0447 µM	0.0174 µM	
NCC[C@@H]1CCCN1C[C@H]1CN(C2C=Cc3c(N)ncnc32)[C@H](O)[C@@H]1O (stereo partly drawn) [Compound 127]	~2.75 µM	0.0617 µM	
NCC[C@@H]1CC(F)(F)CCN1C[C@H]1O[C@@H](c2ccc3c(N)ncnn23)[C@H](O)[C@@H]1O [Compound 128]	> 10 µM	0.204 µM	
CN(C)C[C@@H]1COCCN1C[C@H]1O[C@@H](c2ccc3c(N)ncnn23)[C@H](O)[C@@H]1O [Compound 129]	> 20 µM	> 10 µM	
Nc1ncnn2c([C@@H]3O[C@H](CN4CCOC[C@H]4CN4CCC(F)(F)C4)[C@@H](O)[C@H]3O)ccc12 [Compound 130]	> 20 µM	> 10 µM	
Nc1ncnn2c([C@@H]3O[C@H](CN4CCOC[C@H]4CN4CCCC4)[C@@H](O)[C@H]3O)ccc12 [Compound 131]	> 20 µM	> 10 µM	
NC[C@@H]1COCCN1C[C@H]1O[C@@H](c2ccc3c(N)ncnn23)[C@H](O)[C@@H]1O [Compound 132]	> 20 µM	1.55 µM	
Nc1ncnn2c([C@@H]3O[C@H](CN4CCCC45CCNCC5)[C@@H](O)[C@H]3O)ccc12 [Compound 133]	~1.05 µM	0.0288 µM	
NCC[C@@H]1COCCN1C[C@H]1O[C@@H](c2ccc3c(N)ncnn23)[C@H](O)[C@@H]1O [Compound 134]	8.91 µM	0.2 µM	
CN1CCC2(CCCN2C[C@H]2O[C@@H](c3ccc4c(N)ncnn34)[C@H](O)[C@@H]2O)CC1 [Compound 135]	~1.05 µM	0.617 µM	
Nc1ncnn2c([C@@H]3O[C@H](CN4CC(F)(F)CC45CCNCC5)[C@@H](O)[C@H]3O)ccc12 [Compound 136]	~0.263 µM	0.0501 µM	
Nc1ncnn2c([C@@H]3O[C@H](CN4C(C(F)(F)F)CCC45CCNCC5)[C@@H](O)[C@H]3O)ccc12 (stereo partly drawn) [Compound 137]	> 10 µM	1.15 µM	
Nc1ncnn2c([C@@H]3O[C@H](CN4CCCC45CCN(CCc4ccc(F)cc4)CC5)[C@@H](O)[C@H]3O)ccc12 [Compound 139]	1.66 µM	3.24 µM	
N#CCN1CCC2(CCCN2C[C@H]2O[C@@H](c3ccc4c(N)ncnn34)[C@H](O)[C@@H]2O)CC1 [Compound 140]	~3.02 µM	0.295 µM	
Nc1ncnn2c([C@@H]3O[C@H](CN4CCCC45CCN(CC(F)(F)F)CC5)[C@@H](O)[C@H]3O)ccc12 [Compound 141]	> 10 µM	> 10 µM	
CCN1CCC2(CCCN2C[C@H]2O[C@@H](c3ccc4c(N)ncnn34)[C@H](O)[C@@H]2O)CC1 [Compound 142]	> 10 µM	1.95 µM	
Nc1ncnn2c([C@@H]3O[C@H](CN4CC(F)(F)CC45CCN(CCc4ccc(F)cc4)CC5)[C@@H](O)[C@H]3O)ccc12 [Compound 143]	1.58 µM	7.24 µM	
N#CCN1CCC2(CC1)CC(F)(F)CN2C[C@H]1O[C@@H](c2ccc3c(N)ncnn23)[C@H](O)[C@@H]1O [Compound 144]	~0.933 µM	0.447 µM	
Nc1ncnn2c([C@@H]3O[C@H](CN4CC(F)(F)CC45CCN(CC(F)(F)F)CC5)[C@@H](O)[C@H]3O)ccc12 [Compound 145]	> 10 µM	> 10 µM	
CCN1CCC2(CC1)CC(F)(F)CN2C[C@H]1O[C@@H](c2ccc3c(N)ncnn23)[C@H](O)[C@@H]1O [Compound 146]	4.68 µM	3.98 µM	
CN1CCC2(CC1)CC(F)(F)CN2C[C@H]1O[C@@H](c2ccc3c(N)ncnn23)[C@H](O)[C@@H]1O [Compound 147]	0.603 µM	0.186 µM	

SMILES	IC50 (A549 cells)	IC50 (PRMT5-MEP50 enzyme)	pIC50 Assay 2 (A549 cells)
CN(C)CC[C@@H]1CCCN1C[C@H]1O[C@@H](c2ccc3c(N)ncnn23)[C@H](O)[C@@H]1O [Compound 148]	> 10 µM	1.26 µM	
Nc1ncnn2c([C@@H]3O[C@H](CN4CCC[C@H]4CCN4CCOCC4)[C@@H](O)[C@H]3O)ccc12 [Compound 150]	> 10 µM	> 10 µM	
CN(C)C[C@@H]1CC(F)(F)CN1C[C@H]1O[C@@H](c2ccc3c(N)ncnn23)[C@H](O)[C@@H]1O [Compound 151]	~6.17 µM	5.5 µM	
CN(C)CC[C@@H]1CC(F)(F)CN1C[C@H]1O[C@@H](c2ccc3c(N)ncnn23)[C@H](O)[C@@H]1O [Compound 152]	4.07 µM	2.95 µM	
Nc1ncnn2c([C@@H]3O[C@H](CN4CC(F)(F)C[C@H]4CCN4CCOCC4)[C@@H](O)[C@H]3O)ccc12 [Compound 154]	> 10 µM	> 10 µM	
Nc1ncnn2c([C@@H]3O[C@H](CN4CC(F)(F)C[C@H]4CCN4CCCC4)[C@@H](O)[C@H]3O)ccc12 [Compound 155]	> 10 µM	2.51 µM	
NCC[C@@H]1CC(F)(F)CN1C[C@H]1O[C@@H](c2ccc3c(N)ncnn23)[C@H](O)[C@@H]1O [Compound 156]	1.05 µM	0.0263 µM	
CN(C)C[C@@H]1CC(F)(F)CCN1C[C@H]1O[C@@H](c2ccc3c(N)ncnn23)[C@H](O)[C@@H]1O [Compound 157]	> 20 µM	> 10 µM	
Nc1ncnn2c([C@@H]3O[C@H](CN4CCC(F)(F)C[C@H]4CN4CCCC4)[C@@H](O)[C@H]3O)ccc12 [Compound 159]	> 20 µM	> 10 µM	
NC[C@@H]1CC(F)(F)CCN1C[C@H]1O[C@@H](c2ccc3c(N)ncnn23)[C@H](O)[C@@H]1O [Compound 160]	> 20 µM	2.69 µM	
Nc1ncnn2c([C@@H]3O[C@H](C(=O)N4CCCC45CCNCC5)[C@@H](O)[C@H]3O)ccc12 [Compound 161]	4.17 µM	0.38 µM	
CN(C)CC[C@@H]1CC(F)(F)CN1C(=O)[C@H]1O[C@@H](c2ccc3c(N)ncnn23)[C@H](O)[C@@H]1O [Compound 162]	> 20 µM	3.8 µM	
Nc1ncnc2c1ccn2[C@@H]1C[C@H](C(=O)N2CCCC23CCNCC3)[C@@H](O)[C@H]1O [Compound 163]	0.126 µM	0.00851 µM	
CC(C)C(=O)O[C@@H]1[C@@H](CN2CC(F)(F)CC23CCNCC3)C[C@@H](n2ccc3c(N)ncnc32)[C@@H]1OC(=O)C(C)C [Compound 164]	~6.46 µM	> 10 µM	
Nc1ncnn2c([C@@H]3O[C@H](CN4CCC45CCNCC5)[C@@H](O)[C@H]3O)ccc12 [Compound 165]	> 10 µM	0.871 µM	
Nc1ncnc2c1ccn2[C@@H]1C[C@H](CC2=CCCC23CCNCC3)[C@@H](O)[C@H]1O [Compound 166]		0.00186 µM and 0.00158 µM and 0.000631 µM	7.41 and 7.92 and 7.87
Nc1ncnc2c1ccn2[C@@H]1C[C@H](/C=C2\CCCC23CCNCC3)[C@@H](O)[C@H]1O [Compound 167]	0.0302 µM	0.00316 µM and 0.00158 µM	7.68
CN1CCC2(CCCN2C[C@H]2O[C@@H](n3ccc4c(N)ncnc43)[C@H](O)[C@@H]2O)CC1 [Compound 168]	0.204 µM	0.0263 µM and 0.0174 µM and 0.00851 µM	~6.64 and ~6.7
Nc1ncnc2c1ccn2[C@@H]1O[C@H](CN2CCCC23CCN(CCC(F)(F)F)CC3)[C@@H](O)[C@H]1O [Compound 169]	0.603 µM	0.275 µM	
Nc1ncnc2c1ccn2[C@@H]1O[C@H](CN2CCCC23CCN(CCc2ccc(F)cc2)CC3)[C@@H](O)[C@H]1O [Compound 170]	~0.148 µM	0.0427 µM	
Nc1ncnc2c1ccn2[C@@H]1O[C@H](CN2CCCC23CCN(Cc2ccc(F)cc2)CC3)[C@@H](O)[C@H]1O [Compound 171]	~4.07 µM	1.62 µM	
Nc1ncnc2c1ccn2[C@@H]1O[C@H](CN2CCCC23CCN(Cc2cccnc2)CC3)[C@@H](O)[C@H]1O [Compound 172]	~0.912 µM	0.309 µM	
Nc1ncnc2c1ccn2[C@@H]1O[C@H](CN2CCCC23CCN(CCOc2ccc(F)cc2)CC3)[C@@H](O)[C@H]1O [Compound 173]	0.776 µM	0.347 µM	
Nc1ncnc2c1ccn2[C@@H]1O[C@H](CN2CCCC23CCN(C2CC2)CC3)[C@@H](O)[C@H]1O [Compound 174]	~2.29 µM	0.501 µM	
Nc1ncnc2c1ccn2[C@@H]1O[C@H](CN2CCCC23CCN(Cc2ccoc2)CC3)[C@@H](O)[C@H]1O [Compound 175]	1.41 µM	0.589 µM	
Cc1nc(CN2CCC3(CCCN3C[C@H]3O[C@@H](n4ccc5c(N)ncnc54)[C@H](O)[C@@H]3O)CC2)cs1 [Compound 176]	6.03 µM	1.12 µM	
